Test results taken from patent US11458123B2 (Arvinas, Inc., priority 2016, dated 2022).

Test system: tau protein
Assay: Tau protein in vitro degradation assay (Western blot, Tau-13 antibody)
Assay type: cell-based, human
Conditions: SK-N-SH cells, 72 hours of incubation; for Activity* (highest amount of degradation observed at any dosage, as tau protein remaining): tested at 1000 nM, 300 nM and 100 nM; for Degradation activity* (highest amount of degradation observed at any dosage; tau protein remaining) / Degradation activity (tau protein remaining; highest amount of degradation observed at any dosage): tested at 300 nM, 100 nM, 33 nM and 11 nM, Western blot, Tau-13 antibody
Procedure, shortened: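 Tau degradation read by Tau-13 Western blot (detects all human tau forms) of SDS-PAGE-resolved lysates from SK-N-SH cells. Cells were plated at least 18 h before 72 h exposure to PROTACs at either 1000/300/100 nM or 300/100/33/11 nM.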

Structure (SMILES) | Activity* (highest amount of degradation observed at any dosage, as tau protein remaining) | Degradation activity* (highest amount of degradation observed at any dosage; tau protein remaining) | also measured
Cc1ncsc1-c1ccc(CNC(=O)[C@@H]2C[C@@H](O)CN2C(=O)[C@@H](NC(=O)COCCOCCOCCN2CCN(c3ccn4c(n3)nc3ccccc34)CC2)C(C)(C)C)cc1 [Compound 7, (2S,4R)-1-((S)-14-(4-(benzo[4,5]imidazo[1,2-a]pyrimidin-2-yl)piperazin-1-yl)-2-(tert-butyl)-4-oxo-6,9,12-trioxa-3-azatetradecanoyl)-4-hydroxy-N-(4-(4-methylthiazol-5-yl)benzyl)pyrrolidine-2-carboxamide] | C (>80% tau protein remaining after 72 hours of incubation with the test compound) | – | –
Cn1c2ccncc2c2ccc(-c3cnc(OCCOCCOCCOCCOCCOc4ccc5c(c4)C(=O)N(C4CCC(=O)NC4=O)C5=O)c(C(F)(F)F)c3)cc21 (centres unmarked) [Compound 67, 2-(2,6-dioxopiperidin-3-yl)-5-((14-((5-(5-methyl-5H-pyrido[4,3-b]indol-7-yl)-3-(trifluoromethyl)pyridin-2-yl)oxy)-3,6,9,12-tetraoxatetradecyl)oxy)isoindoline-1,3-dione] | – | A (≤50% tau protein remaining after 72 hours of incubation with the test compound) | –
O=C1CCC(N2C(=O)c3ccc(OCC#Cc4ccc(O[C@H]5C[C@H](Oc6ccc(-c7ccc8c(c7)[nH]c7ccncc78)cn6)C5)cc4)cc3C2=O)C(=O)N1 (some centres unmarked) [Compound 189, 5-((3-(4-((1r,3r)-3-((5-(5H-pyrido[4,3-b]indol-7-yl)pyridin-2-yl)oxy)cyclobutoxy)phenyl)prop-2-yn-1-yl)oxy)-2-(2,6-dioxopiperidin-3-yl)isoindoline-1,3-dione] | – | – | Degradation activity (tau protein remaining; highest amount of degradation observed at any dosage): B (≤80% and >50% tau protein remaining after 72 hours of incubation with the test compound)
Cn1c2ccncc2c2ccc(-c3ccc(OCCCOc4ccc(CCCOC5CN(c6ccc7c(c6)C(=O)N(C6CCC(=O)NC6=O)C7=O)C5)nc4)nc3)cc21 (centres unmarked) [Compound 168, 2-(2,6-dioxopiperidin-3-yl)-5-(3-(3-(5-(3-((5-(5-methyl-5H-pyrido[4,3-b]indol-7-yl)pyridin-2-yl)oxy)propoxy)pyridin-2-yl)propoxy)azetidin-1-yl)isoindoline-1,3-dione] | – | B (≤80% and >50% tau protein remaining after 72 hours of incubation with the test compound) | –
Cc1ncsc1-c1ccc([C@H](C)NC(=O)[C@@H]2C[C@@H](O)CN2C(=O)[C@@H](NC(=O)COCCOCCOCCOCC(=O)N2CCN(c3ccn4c(n3)nc3ccccc34)CC2)C(C)(C)C)cc1 [Compound 18, (2S,4R)-1-((S)-17-(4-(benzo[4,5]imidazo[1,2-a]pyrimidin-2-yl)piperazin-1-yl)-2-(tert-butyl)-4,17-dioxo-6,9,12,15-tetraoxa-3-azaheptadecanoyl)-4-hydroxy-N—((S)-1-(4-(4-methylthiazol-5-yl)phenyl)ethyl)pyrrolidine-2-carboxamide] | C (>80% tau protein remaining after 72 hours of incubation with the test compound) | – | –
Cn1c2ccncc2c2ccc(-c3ccc(O[C@H]4C[C@H](OC5CCN(CC(F)(F)CCCOc6ccc7c(c6)C(=O)N(C6CCC(=O)NC6=O)C7=O)CC5)C4)nc3)cc21 (some centres unmarked) [Compound 171, 5-((4,4-difluoro-5-(4-((1r,3r)-3-((5-(5-methyl-5H-pyrido[4,3-b]indol-7-yl)pyridin-2-yl)oxy)cyclobutoxy)piperidin-1-yl)pentyl)oxy)-2-(2,6-dioxopiperidin-3-yl)isoindoline-1,3-dione] | – | – | Degradation activity (tau protein remaining; highest amount of degradation observed at any dosage): C (>80% tau protein remaining after 72 hours of incubation with the test compound)
O=C1CCC(N2C(=O)c3cccc(NCCOCCOCCOCCOc4ccc(-c5ccc6c(c5)[nH]c5ccncc56)cn4)c3C2=O)C(=O)N1 (centres unmarked) [Compound 2, 4-(2-(2-(2-(2-(5-(5H-pyrido[4,3-b]indol-7-yl)pyridin-2-yloxy)ethoxy)ethoxy)ethoxy)ethylamino)-2-(2,6-dioxopiperidin-3-yl)isoindoline-1,3-dione] | A (≤50% tau protein remaining after 72 hours of incubation with the test compound) | – | –
Cn1c2ccncc2c2ccc(-c3cnc(OCCOCCOCCOCCOCCOc4ccc5c(c4)C(=O)N(C4CCC(=O)NC4=O)C5=O)cc3C(F)(F)F)cc21 (centres unmarked) [Compound 69, 2-(2,6-dioxopiperidin-3-yl)-5-((14-((5-(5-methyl-5H-pyrido[4,3-b]indol-7-yl)-4-(trifluoromethyl)pyridin-2-yl)oxy)-3,6,9,12-tetraoxatetradecyl)oxy)isoindoline-1,3-dione] | – | A (≤50% tau protein remaining after 72 hours of incubation with the test compound) | –
Cn1c2ccncc2c2ccc(-c3ccc(O[C@H]4C[C@H](OCC56CC(COCCOCCOc7ccc8c(c7)C(=O)N(C7CCC(=O)NC7=O)C8=O)(C5)C6)C4)nc3)cc21 (some centres unmarked) [Compound 209, 2-(2,6-dioxopiperidin-3-yl)-5-(2-(2-((3-(((1r,3r)-3-((5-(5-methyl-5H-pyrido[4,3-b]indol-7-yl)pyridin-2-yl)oxy)cyclobutoxy)methyl)bicyclo[1.1.1]pentan-1-yl)methoxy)ethoxy)ethoxy)isoindoline-1,3-dione] | – | – | Degradation activity (tau protein remaining; highest amount of degradation observed at any dosage): A (≤50% tau protein remaining after 72 hours of incubation with the test compound)
CN(C)c1ccc(-c2ccc3cc(OCC(O)COCCOCCOCCOCCNc4cccc5c4C(=O)N(C4CCC(=O)NC4=O)C5=O)ccc3n2)cc1 (centres unmarked) [Compound 45, 4-(15-(2-(4-(dimethylamino)phenyl)quinolin-6-yloxy)-14-hydroxy-3,6,9,12-tetraoxapentadecylamino)-2-(2,6-dioxopiperidin-3-yl)isoindoline-1,3-dione] | C (>80% tau protein remaining after 72 hours of incubation with the test compound) | – | –
Cn1c2ccncc2c2ccc(-c3ccc(OCCCCOCCCCOC4CC5(C4)CN(c4ccc6c(c4)C(=O)N(C4CCC(=O)NC4=O)C6=O)C5)nc3)cc21 (centres unmarked) [Compound 100, 2-(2,6-dioxopiperidin-3-yl)-5-(6-(4-(4-((5-(5-methyl-5H-pyrido[4,3-b]indol-7-yl)pyridin-2-yl)oxy)butoxy)butoxy)-2-azaspiro[3.3]heptan-2-yl)isoindoline-1,3-dione] | – | C (>80% tau protein remaining after 72 hours of incubation with the test compound) | –
O=C1CCC(N2Cc3c(OCCOCCOCCOCCOCCOc4ccc(-c5ccc6c(c5)[nH]c5ccncc56)cn4)cccc3C2=O)C(=O)N1 (centres unmarked) [Compound 50, 3-(4-(14-(5-(5H-pyrido[4,3-b]indol-7-yl)pyridin-2-yloxy)-3,6,9,12-tetraoxatetradecyloxy)-1-oxoisoindolin-2-yl)piperidine-2,6-dione] | A (≤50% tau protein remaining after 72 hours of incubation with the test compound) | – | –
Cc1ncsc1-c1ccc(CNC(=O)[C@@H]2C[C@@H](O)CN2C(=O)[C@@H](NC(=O)COCCCCOc2ccc3nc(-c4ccc(N(C)C)cc4)ccc3c2)C(C)(C)C)cc1 [Compound 33, (2S,4R)-1-((S)-2-(2-(4-(2-(4-(dimethylamino)phenyl)quinolin-6-yloxy)butoxy)acetamido)-3,3-dimethylbutanoyl)-4-hydroxy-N-(4-(4-methylthiazol-5-yl)benzyl)pyrrolidine-2-carboxamide] | C (>80% tau protein remaining after 72 hours of incubation with the test compound) | – | –
O=C1CCC(N2C(=O)c3ccc(OCCCCCc4ccc(O[C@H]5C[C@H](Oc6ccc(-c7ccc8c(c7)[nH]c7ccncc78)cn6)C5)cn4)cc3C2=O)C(=O)N1 (some centres unmarked) [Compound 83, 5-((5-(5-((1r,3r)-3-((5-(5H-pyrido[4,3-b]indol-7-yl)pyridin-2-yl)oxy)cyclobutoxy)pyridin-2-yl)pentyl)oxy)-2-(2,6-dioxopiperidin-3-yl)isoindoline-1,3-dione] | – | C (>80% tau protein remaining after 72 hours of incubation with the test compound) | –
Cn1c2ccncc2c2ccc(-c3ccc(O[C@H]4C[C@H](Oc5ccc(C#CCCCCOc6ccc7c(c6)C(=O)N(C6CCC(=O)NC6=O)C7=O)nc5)C4)nc3)cc21 (some centres unmarked) [Compound 97, 2-(2,6-dioxopiperidin-3-yl)-5-((6-(5-((1r,3r)-3-((5-(5-methyl-5H-pyrido[4,3-b]indol-7-yl)pyridin-2-yl)oxy)cyclobutoxy)pyridin-2-yl)hex-5-yn-1-yl)oxy)isoindoline-1,3-dione] | – | B (≤80% and >50% tau protein remaining after 72 hours of incubation with the test compound) | –
Cn1c2ccncc2c2ccc(-c3ccc(O[C@H]4C[C@H](Oc5ccc(C#CCOC6CN(c7ccc8c(c7)C(=O)N(C7CCC(=O)NC7=O)C8=O)C6)nc5)C4)nc3)cc21 (some centres unmarked) [Compound 111, 2-(2,6-dioxopiperidin-3-yl)-5-(3-((3-(5-((1r,3r)-3-((5-(5-methyl-5H-pyrido[4,3-b]indol-7-yl)pyridin-2-yl)oxy)cyclobutoxy)pyridin-2-yl)prop-2-yn-1-yl)oxy)azetidin-1-yl)isoindoline-1,3-dione] | – | C (>80% tau protein remaining after 72 hours of incubation with the test compound) | –
Cn1c2ccncc2c2ccc(-c3ccc(O[C@H]4C[C@H](OC5CCN(c6cc(OCCOc7ccc8c(c7)C(=O)N(C7CCC(=O)NC7=O)C8=O)cnn6)CC5)C4)nc3)cc21 (some centres unmarked) [Compound 158, 2-(2,6-dioxopiperidin-3-yl)-5-(2-((6-(4-((1r,3r)-3-((5-(5-methyl-5H-pyrido[4,3-b]indol-7-yl)pyridin-2-yl)oxy)cyclobutoxy)piperidin-1-yl)pyridazin-4-yl)oxy)ethoxy)isoindoline-1,3-dione] | – | C (>80% tau protein remaining after 72 hours of incubation with the test compound) | –
